These results are taken from PubChem BioAssay (NCI).

Values joined by “and” are separate entries in the source; they are usually repeats but may differ in a detail not shown here. Equal entries are not always repeated.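 Interpolation was linear, between the two tested concentrations surrounding the appropriate level; five concentrations were tested over 48 hours in 96-well plates. GI50 marks 50% less growth. Definition used: TGI = concentration required for complete inhibition of growth.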 Where only a bound is given, the exact number is not on record here.

Test systems include PC-3 prostate; MCF7 breast; UO-31 renal; CAKI-1 renal; HL-60(TB) leukemia; OVCAR-3 ovarian; OVCAR-5 ovarian; HCT-116 colon; K-562 leukemia; COLO 205 colon.
Holding throughout (experiment): inhibition of tumour cell growth, NCI panel, 48 h

In the case of `CCN(Cc1ccc(F)cc1)c1ccc(CO)c(OC)c1`, the GI50 is 13.3 µM in the assay with PC-3 prostate; 25.3 µM in the assay on MCF7 breast; 13.7 µM in the assay on UO-31 renal; 4.69 µM in the assay on CAKI-1 renal; 16 µM in the assay with HL-60(TB) leukemia; 13.1 µM with OVCAR-3 ovarian. The GI50 in the assay with OVCAR-5 ovarian is 2.64 µM; in the assay with HCT-116 colon, 10 µM; with K-562 leukemia, 20 µM; in the assay on COLO 205 colon, 13.4 µM. The TGI was 33.9 µM in the assay on PC-3 prostate; > 100 µM with MCF7 breast; 35.6 µM with UO-31 renal; 33.3 µM with CAKI-1 renal; 46.4 µM with HL-60(TB) leukemia; 27.5 µM in the assay on OVCAR-3 ovarian. Besides, the TGI with OVCAR-5 ovarian is 12.2 µM; with HCT-116 colon, 28.2 µM; with K-562 leukemia it was > 92 µM; in the assay on COLO 205 colon it was 29.7 µM.
Turning to `N#CC1C(=O)NC(c2ccccc2[N+](=O)[O-])c2sc3c(F)cccc3c21` (centres undefined), the GI50 in the assay with PC-3 prostate was 12.4 µM; with MCF7 breast it was 0.216 µM; with UO-31 renal it was 5.44 µM; with CAKI-1 renal, 0.242 µM; in the assay with HL-60(TB) leukemia it was 14.2 µM; in the assay with OVCAR-3 ovarian, 0.318 µM. The GI50 was 0.583 µM in the assay with OVCAR-5 ovarian, 0.138 µM in the assay with HCT-116 colon, 2.39 µM in the assay on K-562 leukemia and 8.05 µM with COLO 205 colon. For the same compound, the TGI in the assay with PC-3 prostate came to 73 µM; in the assay on MCF7 breast, 37 µM; with UO-31 renal, 36.1 µM; in the assay on CAKI-1 renal, 5.43 µM; with HL-60(TB) leukemia it was 54.3 µM; with OVCAR-3 ovarian, 12.7 µM. The TGI in the assay with OVCAR-5 ovarian came to 4.45 µM; with HCT-116 colon it was 11.9 µM; in the assay with K-562 leukemia, 58.8 µM; with COLO 205 colon, 58.4 µM.
For `C[CH2][Sn]([CH2]C)([O]C(=O)c1ccc(OC)c(OC)c1OC)[O]C(=O)c1ccc(OC)c(OC)c1OC`, the GI50 in the assay with PC-3 prostate is > 100 µM; in the assay on MCF7 breast, 24.7 µM; in the assay on UO-31 renal it was > 65.7 µM; in the assay on CAKI-1 renal it was 14.7 µM; in the assay on HL-60(TB) leukemia, > 63.5 µM; in the assay on OVCAR-3 ovarian, > 100 µM. In addition, the GI50 in the assay on OVCAR-5 ovarian is > 85.4 µM; in the assay on HCT-116 colon it was > 100 µM; in the assay with K-562 leukemia, 21.7 µM; in the assay with COLO 205 colon, 65.1 µM. For the same compound, the TGI was > 100 µM with PC-3 prostate; 49.2 µM with MCF7 breast; > 96.4 µM in the assay with UO-31 renal; 30.6 µM in the assay on CAKI-1 renal; > 100 µM in the assay on HL-60(TB) leukemia; > 100 µM in the assay on OVCAR-3 ovarian. The TGI with OVCAR-5 ovarian is > 100 µM; in the assay on HCT-116 colon it was > 100 µM; with K-562 leukemia, > 74.6 µM; in the assay on COLO 205 colon, > 100 µM.
As for `Fc1ccc(Nc2nc3ccccc3c3occc23)cc1`, the GI50 with PC-3 prostate is 7.07 µM; in the assay with MCF7 breast, 3.39 µM; in the assay on UO-31 renal it was 12.4 µM; with CAKI-1 renal, 1.89 µM; in the assay on HL-60(TB) leukemia, 10.8 µM; in the assay on OVCAR-3 ovarian, 1.48 µM. Also, the GI50 is 10.1 µM in the assay with OVCAR-5 ovarian, 0.13 µM in the assay on HCT-116 colon, 3.66 µM in the assay on K-562 leukemia and 3.3 µM in the assay on COLO 205 colon. Moreover, the TGI in the assay on PC-3 prostate was 20 µM; in the assay with MCF7 breast, 18.5 µM; in the assay on UO-31 renal, 27.8 µM; with CAKI-1 renal, 5.24 µM; with HL-60(TB) leukemia, 36.8 µM; in the assay with OVCAR-3 ovarian, 12.1 µM. Besides, the TGI in the assay on OVCAR-5 ovarian was 21.8 µM; in the assay on HCT-116 colon, 2.41 µM; in the assay with K-562 leukemia, > 100 µM; in the assay with COLO 205 colon it was 12.9 µM.
Take `COC1=CC(=O)c2nc(Cl)ccc2C1=O`: the GI50 in the assay with PC-3 prostate is 3.73 µM; with MCF7 breast, 1.91 µM; in the assay with UO-31 renal, 1.63 µM; in the assay on CAKI-1 renal, 1.91 µM; in the assay with HL-60(TB) leukemia, 2.01 µM; in the assay on OVCAR-3 ovarian it was 1.79 µM. Further, the GI50 in the assay on OVCAR-5 ovarian was 2.06 µM; with HCT-116 colon, 1.75 µM; with K-562 leukemia it was 2.98 µM; with COLO 205 colon, 2.31 µM. The TGI in the assay with PC-3 prostate amounted to 16.5 µM; in the assay on MCF7 breast, 4.19 µM; with UO-31 renal, 3.12 µM; in the assay on CAKI-1 renal, 3.74 µM; in the assay on HL-60(TB) leukemia, 7.61 µM; in the assay on OVCAR-3 ovarian, 3.19 µM. Moreover, the TGI with OVCAR-5 ovarian is 4.88 µM; in the assay with HCT-116 colon, 3.24 µM; in the assay with K-562 leukemia, > 100 µM; in the assay on COLO 205 colon, 4.98 µM.
Turning to `CCCCCC[C@H](C)NC(=O)c1ccc(Nc2nc3ccccc3c3occc23)cc1`, the GI50 in the assay on PC-3 prostate is 5.36 µM; in the assay with MCF7 breast, 5.86 µM; with UO-31 renal it was 0.596 µM; with CAKI-1 renal, 3.97 µM; with HL-60(TB) leukemia, 4.47 µM; with OVCAR-3 ovarian it was 3.11 µM. Further, the GI50 with OVCAR-5 ovarian was 5.35 µM; with HCT-116 colon, 2.14 µM; with K-562 leukemia, 8.72 µM; with COLO 205 colon, 3.07 µM. Further, the TGI with PC-3 prostate is > 100 µM; in the assay on MCF7 breast it was > 100 µM; in the assay with UO-31 renal, 3.53 µM; in the assay with CAKI-1 renal, 50.5 µM; in the assay on HL-60(TB) leukemia, 48.9 µM; in the assay on OVCAR-3 ovarian, 19.7 µM. Also, the TGI in the assay with OVCAR-5 ovarian is > 100 µM; in the assay on HCT-116 colon, 6.43 µM; in the assay with K-562 leukemia, > 100 µM; in the assay on COLO 205 colon, 8.45 µM.
For the compound `COc1ccc(N(C)c2nc(Cl)nc3cnn(C)c23)cc1`, the GI50 in the assay on PC-3 prostate is < 0.01 µM; in the assay on MCF7 breast, < 0.01 µM; in the assay on UO-31 renal, < 0.0383 µM; in the assay with CAKI-1 renal it was < 0.01 µM; in the assay with HL-60(TB) leukemia, < 0.01 µM; with OVCAR-3 ovarian, < 0.01 µM. Moreover, the GI50 in the assay with OVCAR-5 ovarian was 0.0379 µM; in the assay on HCT-116 colon, < 0.01 µM; with K-562 leukemia, < 0.01 µM; with COLO 205 colon, < 0.01 µM. In addition, the TGI in the assay on PC-3 prostate was > 100 µM; in the assay with MCF7 breast it was > 100 µM; in the assay with UO-31 renal it was > 95.5 µM; in the assay with CAKI-1 renal it was > 100 µM; with HL-60(TB) leukemia it was < 0.0222 µM; in the assay with OVCAR-3 ovarian, > 100 µM. Besides, the TGI with OVCAR-5 ovarian is > 100 µM; with HCT-116 colon, > 100 µM; in the assay on K-562 leukemia, > 100 µM; in the assay with COLO 205 colon, 0.058 µM.
In the case of `COc1cc(/C=C/C(=O)c2c(C)nc3ccccc3c2C)ccc1OCCCN1CCN(C(=O)c2ccco2)CC1`, the GI50 with PC-3 prostate is 6.44 µM; in the assay on MCF7 breast, 3.8 µM; in the assay with UO-31 renal it was 4 µM; with CAKI-1 renal, 1.86 µM; with HL-60(TB) leukemia it was 2.72 µM; with OVCAR-3 ovarian, 9.46 µM. For the same compound, the GI50 in the assay on OVCAR-5 ovarian was 18.1 µM; with HCT-116 colon, 3.5 µM; with K-562 leukemia, 2.57 µM; with COLO 205 colon it was 11 µM. The TGI in the assay with PC-3 prostate came out at 26.7 µM; with MCF7 breast it was 15.8 µM; in the assay with UO-31 renal it was 19.6 µM; with CAKI-1 renal it was 9.03 µM; in the assay with HL-60(TB) leukemia, 5.63 µM; in the assay on OVCAR-3 ovarian, 21.3 µM. Besides, the TGI came to 32 µM in the assay on OVCAR-5 ovarian, 15.7 µM in the assay on HCT-116 colon, 10.6 µM in the assay on K-562 leukemia and 23 µM in the assay on COLO 205 colon.
Regarding `C/C(=N/Nc1nc(C)cc(=O)[nH]1)C(=O)O`, the TGI with PC-3 prostate, with MCF7 breast, in the assay with UO-31 renal, in the assay with CAKI-1 renal, in the assay on HL-60(TB) leukemia and with OVCAR-3 ovarian was > 100 µM each time. Besides, the TGI in the assay with OVCAR-5 ovarian, in the assay on HCT-116 colon, in the assay on K-562 leukemia and in the assay with COLO 205 colon was > 100 µM in each case.
Regarding `Cc1ccc(OCC2OC(n3cnc4c(Br)nc(Br)nc43)CC2Oc2ccc(C)cc2)cc1` (centres undefined), the GI50 in the assay on PC-3 prostate was 5.42 µM; with MCF7 breast it was 2.52 µM; in the assay on UO-31 renal, 11.9 µM; in the assay on CAKI-1 renal it was 1.2 µM; in the assay with OVCAR-3 ovarian, 3.77 µM; with OVCAR-5 ovarian, 16.1 µM. In addition, the GI50 was 5.29 µM in the assay on HCT-116 colon, 1.94 µM in the assay on K-562 leukemia and 11.4 µM in the assay on COLO 205 colon. Besides, the TGI with PC-3 prostate is 16.2 µM and 11.8 µM; in the assay on MCF7 breast it was 8.4 µM and 30.3 µM; with UO-31 renal, 22.3 µM and 28.4 µM; in the assay with CAKI-1 renal, 2.26 µM and 4.03 µM; in the assay with HL-60(TB) leukemia, 21.8 µM; with OVCAR-3 ovarian, 14.3 µM and 19.1 µM. The TGI with OVCAR-5 ovarian was 34.2 µM and 42.2 µM; in the assay with HCT-116 colon it was 14.5 µM and 3.6 µM; with K-562 leukemia it was 3.92 µM and > 23.8 µM; in the assay with COLO 205 colon it was 25.3 µM and 13.1 µM.
On to `CN(C)CCOC(=O)Nc1nc2ccc(Sc3ccccc3)cc2[nH]1`, for which the GI50 in the assay with PC-3 prostate was 3 µM; in the assay on MCF7 breast, 1.35 µM; in the assay on UO-31 renal, 3.11 µM; in the assay with CAKI-1 renal, 3.16 µM; in the assay with HL-60(TB) leukemia, 3.24 µM; in the assay with OVCAR-3 ovarian it was 2.66 µM. The GI50 is 4.22 µM with OVCAR-5 ovarian, 3.16 µM in the assay with HCT-116 colon, 0.613 µM with K-562 leukemia and 2.16 µM in the assay on COLO 205 colon. The TGI in the assay on PC-3 prostate stood at 22.7 µM; with MCF7 breast, 15.2 µM; in the assay on UO-31 renal it was 15.4 µM; in the assay with CAKI-1 renal it was 17.2 µM; in the assay on HL-60(TB) leukemia it was 8.59 µM; in the assay with OVCAR-3 ovarian, 9.06 µM. The TGI was found to be 21.1 µM with OVCAR-5 ovarian, 12.6 µM in the assay on HCT-116 colon, 13.7 µM with K-562 leukemia and 5.19 µM with COLO 205 colon.
For `COc1ccc2c(c1OC(C)=O)C1=CC(=O)CCC13CCNC3C2` (centres undefined), the TGI in the assay with PC-3 prostate, in the assay with MCF7 breast, with UO-31 renal, in the assay on CAKI-1 renal, in the assay with HL-60(TB) leukemia and in the assay with OVCAR-3 ovarian was > 100 µM each time. The TGI in the assay with OVCAR-5 ovarian, with HCT-116 colon, with K-562 leukemia and in the assay with COLO 205 colon was > 100 µM each time.
